Values quoted from earlier work, collected in patent US9308212B2, “Compositions comprising alprazolam for treating primary insomnia and insomnia associated with anxiety states and process for preparing them” (LABORATORIOS BAGO S.A., priority 2008, dated 2016).

Solubility of the amorphous form relative to the crystalline form: 10 times
Structure (SMILES): CO[C@@H]1[C@@H](OC(N)=O)[C@@H](O)[C@H](Oc2ccc3c(O)c(NC(=O)c4ccc(O)c(CC=C(C)C)c4)c(=O)oc3c2C)OC1(C)C [amorphous novobiocine, novobiocine]
